Measurements: patent US10053487B2, “Neuroactive 19-alkoxy-17(20)-Z-vinylcyano-substituted steroids, prodrugs thereof, and methods of treatment using same” (priority 2012, dated 2018)
Where two headings read alike, the source gives them in different places.

Tests used:
[1] = target: T1, rat α1β2γ2L type GABAA receptors expressed in Xenopus laevis oocytes (Rattus norvegicus, UniProt P62813+P63138); experiment: Oocyte electrophysiology: potentiation of chloride currents mediated by 2 μM GABA, and direct gating; type: cell-based; details: ± SEM, N≥4; for Ratio of currents measured in the presence/absence of added compound, 0.1 μM: 0.1 μM compound; for Ratio of currents measured in the presence/absence of added compound, 0.1 μM / Ratio of currents measured in the presence/absence of added compound, 1 μM / Ratio of currents measured in the presence/absence of added compound, 10 μM: 2 μM GABA; for Ratio of currents measured in the presence/absence of added compound, 1 μM: 1 μM compound; for Ratio of currents measured in the presence/absence of added compound, 10 μM: 10 μM compound; for (gating) 10 μM: ratio of compound only current/2 μM GABA current: direct current gated by 10 μM compound in the absence of GABA
T1 construct: expressed in transfected cells; host or cells: Xenopus laevis oocytes
T1 sequence (P62813 28-455): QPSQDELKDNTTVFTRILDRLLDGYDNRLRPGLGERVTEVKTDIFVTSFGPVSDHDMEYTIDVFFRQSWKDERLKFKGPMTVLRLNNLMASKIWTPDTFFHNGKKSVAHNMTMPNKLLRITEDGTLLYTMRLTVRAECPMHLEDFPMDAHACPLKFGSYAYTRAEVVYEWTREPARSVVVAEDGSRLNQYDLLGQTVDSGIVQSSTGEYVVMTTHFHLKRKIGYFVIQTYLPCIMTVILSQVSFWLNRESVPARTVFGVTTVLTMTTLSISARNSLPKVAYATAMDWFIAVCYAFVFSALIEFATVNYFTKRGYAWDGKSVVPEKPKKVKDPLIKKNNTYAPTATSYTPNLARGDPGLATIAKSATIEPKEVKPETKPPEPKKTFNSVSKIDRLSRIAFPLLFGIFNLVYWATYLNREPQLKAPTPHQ
T1 sequence (P63138 26-474): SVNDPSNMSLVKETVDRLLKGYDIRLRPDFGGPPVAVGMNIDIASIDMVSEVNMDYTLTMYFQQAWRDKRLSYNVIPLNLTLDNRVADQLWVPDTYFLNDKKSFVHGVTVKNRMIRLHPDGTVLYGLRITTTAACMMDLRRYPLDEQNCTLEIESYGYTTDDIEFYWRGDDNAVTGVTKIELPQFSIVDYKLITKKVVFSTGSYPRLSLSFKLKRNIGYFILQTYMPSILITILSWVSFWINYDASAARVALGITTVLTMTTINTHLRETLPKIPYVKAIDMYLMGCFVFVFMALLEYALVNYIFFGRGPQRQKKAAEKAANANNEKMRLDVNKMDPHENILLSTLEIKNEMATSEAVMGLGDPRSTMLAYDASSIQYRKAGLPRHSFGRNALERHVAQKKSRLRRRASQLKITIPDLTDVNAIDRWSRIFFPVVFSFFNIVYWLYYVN
T1 sequence (P18508 other isoform, or with tags, fused parts or gaps INS375LLRMFSFK, further chain): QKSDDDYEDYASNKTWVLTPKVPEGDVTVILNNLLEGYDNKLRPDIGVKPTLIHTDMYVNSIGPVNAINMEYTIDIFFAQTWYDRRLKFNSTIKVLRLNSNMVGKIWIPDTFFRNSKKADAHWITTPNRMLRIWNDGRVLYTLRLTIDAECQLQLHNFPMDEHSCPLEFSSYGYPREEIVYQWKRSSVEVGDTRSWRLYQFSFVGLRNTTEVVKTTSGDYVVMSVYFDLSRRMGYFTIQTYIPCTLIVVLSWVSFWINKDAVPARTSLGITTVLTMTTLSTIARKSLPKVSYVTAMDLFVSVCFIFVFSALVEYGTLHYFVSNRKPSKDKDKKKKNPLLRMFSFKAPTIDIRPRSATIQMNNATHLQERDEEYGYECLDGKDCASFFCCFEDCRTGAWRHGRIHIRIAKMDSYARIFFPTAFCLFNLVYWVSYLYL
Experimental: The compounds of the present disclosure were evaluated for the ability to potentiate chloride currents mediated by 2 μM GABA at rat α1β2γ2L type GABAA receptors expressed in Xenopus laevis oocytes and the results are shown in Table 2.
The potentiation of 2 μM GABA-mediated chloride currents at rat α1β2γ2-type GABAA receptors expressed in frog oocytes by different concentrations of Compound 1, is illustrated by the curves in FIG. 2, as well. ^aThe GABA concentration used for the control response was 2 μM. Each compound was evaluated on at least four different oocytes at the concentrations indicated, and the results reported are the ratio of currents measured in the presence/absence of added compound. Gating represents direct current gated by 10 μM compound in the absence of GABA, and this current is reported as the ratio of compound only current/2 μM GABA current. Error limits are calculated as standard error of the mean (N≥4). Methods used are known in the art (see, e.g., E. Stastna, et al., Neurosteroid Analogues. 16. A New Explanation for the Lack of Anesthetic Effects in Δ^16-Alphaxalone and Identification of a Δ^17(20) Analogue with Potent Anesthetic Activity, J. Med. Chem., 54(11), pp. 3926-34 (2011)).

[2] = target: T2, GABAA receptors (picrotoxin binding site); experiment: [35S]-TBPS displacement (non-competitive displacement from the picrotoxin binding site); details: duplicate experiments performed in triplicate; ± SEM; read-out: Inhibition of [35S]-TBPS binding, IC50
T2 construct: other: duplicate experiments performed in triplicate; ± SEM; other: Hill coefficient
Experimental: (§1) The IC50 values for the compounds of Scheme 1 (i.e., Compounds 1 and 2) as non-competitive displacers of [^35S]-TBPS from the picrotoxin binding site on GABAA receptors are reported in Table 1.
(§2) Results presented are from duplicate experiments performed in triplicate. Error limits are calculated as standard error of the mean. Methods used are known in the art (see, e.g., E. Stastna, et al., Neurosteroid Analogues. 16. A New Explanation for the Lack of Anesthetic Effects in Δ^16-Alphaxalone and Identification of a Δ^17(20) Analogue with Potent Anesthetic Activity, J. Med. Chem., 54(11), pp. 3926-34 (2011)).

tadpoles = experiment: Tadpole loss of righting reflex (LRR) and loss of swimming reflex (LSR); type: in vivo; details: ± SEM
Text: Table 3 discloses the anesthetic effects of the compounds of the present disclosure. In particular, the anesthetic effect of the compounds of the present disclosure on Loss of Righting Reflex (LRR) and Loss of Swimming Reflex (LSR).
A quantal dose-response curve for loss of righting reflect (LRR) and loss of swimming reflex (LSR) caused by Compound 1 in tadpoles, is illustrated in FIG. 3, as well. ^aMethods used are known in the art (see, e.g., E. Stastna, et al., Neurosteroid Analogues. 16. A New Explanation for the Lack of Anesthetic Effects in Δ^16-Alphaxalone and Identification of a Δ^17(20) Analogue with Potent Anesthetic Activity, J. Med. Chem., 54(11), pp. 3926-34 (2011)). Error limits are calculated as standard error of the mean (N=10 or more animals at each of five or more different concentrations).

[3] = system: GABAA receptors (picrotoxin binding site); experiment: [35S]-TBPS displacement (non-competitive displacement from the picrotoxin binding site)
Experimental: as §1, §2

GABAA receptors = details: background statement; cited from earlier work
[4] = loss of righting reflex, read-out: Tadpole LRR EC50
[5] = loss of swimming reflex, read-out: Tadpole LSR EC50
[6] = [35S]-TBPS displacement, hydrogenated Δ17(20) double bond

For COC[C@]12CC[C@@H](O)C[C@@H]1CC[C@@H]1[C@@H]2CC[C@]2(C)/C(=C\C#N)CC[C@@H]12 [Compound 1, [3α,5α,17(20)Z]-19-methoxypregn-17(20)-ene-21-nitrile], the “Ratio of currents measured in the presence/absence of added compound, 0.1 μM” value [1] was 2.88 ± 0.90, the “Ratio of currents measured in the presence/absence of added compound, 1 μM” value [1] was 15.27 ± 2.58 and the “Ratio of currents measured in the presence/absence of added compound, 10 μM” value [1] was 45.80 ± 15.79. For the same molecule, the “(gating) 10 μM: ratio of compound only current/2 μM GABA current” value [1] was 0.19 ± 0.08, the melting point was 166 to 168 °C and the IC50 [2] was 0.042 ± 0.004 µM. The EC50 (tadpoles; [4]) was 0.159 ± 0.025 µM and the EC50 (tadpoles; [5]) was 0.97 ± 0.065 µM.
With COC[C@]12CC[C@@H](O)C[C@@H]1CC[C@@H]1[C@@H]2CC[C@]2(C)/C(=C/C#N)CC[C@@H]12 [Compound 2, [3α,5α,17(20)E]-19-methoxypregn-17(20)-ene-21-nitrile] the “Ratio of currents measured in the presence/absence of added compound, 0.1 μM” value [1] was 0.69 ± 0.11, the “Ratio of currents measured in the presence/absence of added compound, 1 μM” value [1] was 1.26 ± 0.22 and the “Ratio of currents measured in the presence/absence of added compound, 10 μM” value [1] was 2.97 ± 0.33. The “(gating) 10 μM: ratio of compound only current/2 μM GABA current” value [1] was 0.31 ± 0.25, the melting point was 185 to 188 °C and the IC50 [2] was 0.657 ± 0.114 µM. The EC50 (tadpoles; [4]) was 2.78 ± 0.56 µM and the EC50 (tadpoles; [5]) was about 10 µM.
In the case of C[C@]12CC[C@@H](O)C[C@@H]1CC[C@H]1[C@@H]3CC[C@H](CC#N)[C@@]3(C)CC(=O)[C@@H]12 [Compound 5c], the “Fold decrease of IC50 value relative to Compound 6b” value [3, 6] is reported as “about twofold” and the “Fold increase of IC50 value relative to Compound 6a” value [3, 6] is reported as “about eight-fold”.
In the case of C[C@]12CC[C@@H](O)C[C@@H]1CC[C@@H]1[C@@H]2C(=O)C[C@]2(C)/C(=C\C#N)CC[C@@H]12 [Compound 6a], the “Fold more potent at displacing [35S]-TBPS than the E isomer” value ([3]; Z isomer versus E isomer (Compound 6a versus Compound 6b)) is reported as “about 17 fold”.
For CC(=O)C1=CC[C@H]2[C@@H]3CC[C@H]4C[C@H](O)CC[C@]4(C)[C@H]3C(=O)C[C@]12C [Δ^16-alphaxalone], the “Allosteric activity at GABAA receptors, in contrast to alphaxalone” value (GABAA receptors) is given as “greatly diminished allosteric activity”.
